Reference: PubChem BioAssay (NCI)
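Grown in 96-well plates, cells were treated for 48 hours with each compound at five concentrations. Insufficient inhibition: endpoint recorded as highest concentration tested. GI50 marks 50% less growth. TGI marks complete inhibition of growth.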

System: MDA-MB-468 breast
Experiment: DTP human tumour cell line panel, 48 h

Row | SMILES | GI50 [µM] | TGI [µM]
1 | CN1CCN(Cc2ccc(NC(=O)c3cncc(C#Cc4cnc5ccc(OCC(F)F)nn45)c3)cc2C(F)(F)F)CC1 | 0.428 | 1.33
2 | COc1cc(C(=O)/C=C/c2cccnc2Nc2ccccc2)cc(OC)c1OC | 0.665 | 2.1
3 | COc1cc(C2CC(c3ccc(N(C)C)cc3)=NN2C(C)=O)cc(OC)c1OC (configuration not stated) | 1.72 | > 100
4 | Nc1n[nH]c2cccc(C#Cc3cccc(C(=O)Nc4cc(CN5CCOCC5)cc(C(F)(F)F)c4)c3)c12 | 3.47 | 12.9
5 | COCCNc1cc(NC(=O)N2CCCc3cc(CN4CCN(C)CC4=O)c(C=O)nc32)ncc1C#N | 26.5 | > 50
6 | CN(C)c1ccc(C(=C2C=CC(=[N+](C)C)C=C2)c2ccc(N(C)C)cc2)cc1 | 0.12 | 0.43
7 | CS(=O)(=O)Nc1ccc(N=Cc2c(O)[nH]c3ccccc23)cc1 | > 25 | > 25
8 | O=C(c1cccnc1)c1cc(-c2ccccn2)c(=O)n2ccccc12 | > 100 | > 100
9 | Cn1ccnc1C(=O)/C=C/c1ccc(CC(=O)Nc2ccc(C(F)(F)F)cc2)cc1 | 2.09 | 4.66
10 | FC(F)(F)c1ccc(-c2cnc(Cl)nc2NCc2cc(C(F)(F)F)cc(C(F)(F)F)c2)cc1 | 2.06 | 9.15
11 | CCNCCNc1cc(C2CCCCC2)c(C#N)c2nc3ccccc3n12 | 0.751 | 2.1
12 | CCOc1ccccc1/C=N\N=C(\N)N/N=C/c1ccccc1OCC | 1.72 | 8.48
13 | CC(=O)O[C@H]1CC[C@@]2(C)[C@@H](CC[C@@H]3[C@@H]2CC[C@]2(C)C=C(C=O)C[C@@H]32)C1 | 15.5 | 38.2
14 | Nc1n[nH]c2ccc([C@@H]3Nc4ccc5[nH]ncc5c4[C@H]4C5C=CC(C5)[C@@H]34)cc12 (some centres not stated) | 0.329 | 16
15 | COc1ccc(-c2nn(-c3cccc(Cl)c3)cc2-c2cc(-c3ccccc3)nc(N)n2)cc1 | 1.72 | 3.59
16 | CCCCNC(=O)NS(=O)(=O)c1ccc(N2N=C(c3cc(C)ccc3C)CC2c2cc(OC)c(OC)c(OC)c2)cc1 (configuration not stated) | 2.17 | 5.35

Row | SMILES | GI50 [µM] | TGI [µM]
17 | CCCOc1nc(SCCC)nc2c1cnn2-c1ccccc1 | > 100 | > 100
18 | CCN1C(=O)N(CC)C2C1NN=c1s/c(=C\c3cc4ccccc4[nH]3)c(=O)n12 (configuration not stated) | < 0.01 | 8.52
19 | OCC1OC(n2cnc3c(=S)nc[nH]c32)C(O)C1O (configuration not stated) | 0.631 | > 100
20 | CC1(C)CC[C@]2(C(=O)N3CCOCC3)CC[C@]3(C)C(=CC[C@@H]4[C@@]5(C)C/C(=C/c6ccncc6)C(=O)C(C)(C)[C@@H]5CC[C@]43C)[C@@H]2C1 | 0.712 | > 100
21 | C[C@]12CCc3sc(Nc4ccc(O)cc4)nc3C1=CC[C@@H]1[C@@H]2CC[C@]2(C)C(=O)CC[C@@H]12 | 2.17 | 5.8
22 | CC(C)c1ccc(Nc2nccc(-c3cnn4ncccc34)n2)cc1 | 0.271 | 0.833
23 | Nc1ccc(-c2ccc(N)cc2I)c(I)c1 | 5.93 | 44.9
24 | COc1cc(C2C3=C(COC3=O)Nc3cc4c(cc32)CCC4)cc2c1OCO2 (configuration not stated) | 0.0281 | 0.147
25 | CCCCN(CCCC)c1ccc(C(=NC(C)CCCN(CC)CC)c2ccc(N(C)C)cc2)cc1 (configuration not stated) | 0.795 | 1.67
26 | Nc1nc(N)c(N=O)c(OCC2CCCCC2)n1 | 15.2 | 52.9
27 | C=C1CCC2C3(C)COC(c4ccccc4Br)OC3CCC2(C)C1C/C=C1/C(=O)OCC1OC(C)=O (configuration not stated) | 1.2 | 2.82
28 | O=C(CCCSc1nc(-c2ccccc2)cc(-c2ccc(Cl)cc2)n1)NO | 1.58 | 3.89
29 | Nc1c(C(=O)Nc2ccccc2)sc2nc3c(cc12)CN(Cc1ccccc1)CC3 | 17 | > 100
30 | CN(C)CC1CCCCCC(CN(C)C)C1=O (configuration not stated) | 0.502 | 2.54
31 | Cc1[nH]c2ccccc2c1CCNCc1ccc(/C=C/C(=O)NO)cc1 | < 0.01 | 0.14
